Experimental data published in patent US20210206810A1, “Detection of Optimal Recombinants Using Fluorescent Protein Fusions” (priority 2019, published 2021).

Assays:
[1] = test system: methicillin resistant Staphylococcus aureus (MRSA); conditions: microbial species including MRSA; cited from earlier work
Micrococcus luteus = assay: Determination of minimum inhibitory concentration (MIC); type: cell-based; conditions: visual inspection after 24 hours at 37° C. in MHB; tested 0.25 to 32 μg/mL

epidermicin-N101
cytotoxicity to microbial species [1]: highly cytotoxic | minimum inhibitory concentration (growth of Micrococcus luteus) (Micrococcus luteus): 2 µg/mL
